Laboratory results reported in patent US20190038556A1, “FORMULATIONS AND CARRIER SYSTEMS INCLUDING COMPOUND INTERACTIVE DOMAINS” (University of Pittsburgh - Of The Commonwealth System of …, priority 2012, published 2019).

Assays:
[1] = Particle size measurement by laser dynamic light scattering; type: physicochemical; settings: agent formulated with multi-chain PEGylated micelle-forming surfactant
Description: 1(f). Particle size measurement. […] Samples were further diluted ten times in distilled water and sizes were measured by laser dynamic light scattering using a particle sizer (Zetasizer Nano ZS instrument, available from Malvern Instruments Ltd of Worcestershire, United Kingdom). Size measurement of emulsion particles were conducted using a Coulter N4 particle sizer after a 100-fold dilution in saline.

[2] = Oxidation of ECGC in PBS on exposure to air; type: physicochemical; settings: exposed to air, free 24 hrs, complex over a week
[3] = Solubilization of tested agents with multi-chain PEGylated micelle-forming surfactants (Table 1)
From the text: The exact mechanism for the protection of ECGC against oxygen in the form of complex is unknown.

[4] = test system: PC-3 human prostate cancer cell line; assay: In vitro cytotoxicity (MTT), PC-3; type: cell-based; settings: PC-3, 72 h, FIG. 14B
Description: (§1) The tumor-inhibitory efficacy of PEG-Fmoc/PTX was also investigated both in vitro and in vivo. In vitro cytotoxicity of PEG-Fmoc/PTX was evaluated in mouse metastatic breast cancer cell line 4T1.2, and two human prostate cancer cell lines, PC-3 and DU145. […] Without limitation to any mechanism, the increased cytotoxicity of PEG-Fmoc/PTX may, for example, be attributable to facilitated entry of PTX into tumor cells.
(§2) 2(b)(viii). In Vitro Cytotoxicity. Mouse metastatic breast cancer cell line 4T1.2, and two human prostate cancer cell lines PC-3 and DU145 were utilized to evaluate the in vitro cytotoxicity of PTX/PEG-Fmoc2. Cells were seeded in 96-well plates at 1000 (4T1.2), 2000 (DU145) and 3000 (PC-3) cells per well. […] Seventy-two h later, 20 μL of 3-(4,5-dimethylthiazol-2-yl)-2,5-diphenyltetrazoliumbromide (MTT, 5 mg/mL) was added into each well. Following incubation for 4 h, the medium was removed and 150 μL of DMSO was added to each well to solubilize the formazan crystal. The absorbance of each well was detected at 550 nm with a reference wavelength at 630 nm using a microplate reader, and cell viability was calculated based on the formula below. Untreated cells were included as a control.
(§3) % cytotoxicity=[1−(ODtreat−ODblank)/(ODcontrol−ODblank)]×100%

[5] = Size distribution of PTX/PEG-Fmoc2 mixed nanomicelles (DLS); type: physicochemical
Description: 2(b)(iv). Preparation and biophysical characterization of PTX/PEG-Fmoc2 mixed micelles. Thin-film hydration method was utilized for preparation of PTX/PEG-Fmoc2 mixed nanomicelles. PEG-Fmoc2 and PTX in chloroform were well mixed in a glass tube at designated molar ratios. A thin film of carrier/drug mixture was generated through removal of the organic solvent by a gentle stream of nitrogen. The trace amount of solvent was further removed via vacuum for 2 h. Then the film was hydrated and suspended in DPBS by vortex to obtain a clear solution of PTX/PEG-Fmoc2 mixed nanomicelles. Any non-entrapped drug was removed by filtration through 220 nm PVDF syringe filter.
(§4) The size distribution of PTX/PEG-Fmoc2 mixed nanomicelles was examined by dynamic light scattering (DLS) via a Malvern Zeta Nanosizer, and the morphology was observed by transmission electron microscopy (TEM) after negative staining. The CMC measurement was performed as reported before with pyrene as a fluorescence probe. To quantify PTX in the micelles, PTX was extracted by methanol, and detected by Waters Alliance 2695-2998 high-performance liquid chromatography (HPLC) system with a RP-18 column (250 mm×4.6 mm) equipped with a UV detector at 227 nm at room temperature. A mixture of methanol/water (80:20, v/v) was used as mobile phase at a flow rate at 0.8 mL/min. The drug loading capacity (DLC) and efficiency (DLE) were calculated as set forth above.

[6] = test system: DU145 human prostate cancer cell line; assay: In vitro cytotoxicity (MTT), DU145; type: cell-based; settings: DU145, 72 h, FIG. 14C
Description: as §1, §2, §3

[7] = CMC measurement with pyrene as a fluorescence probe; type: physicochemical
Description: as §4

[8] = test system: 4T1.2 mouse metastatic breast cancer cell line; assay: In vitro cytotoxicity (MTT), 4T1.2; type: cell-based; settings: 4T1.2, 72 h, FIG. 14A
Description: as §1, §2, §3

[9] = test system: rat red blood cells; assay: Hemolysis assay; type: cell-based; settings: 2 hrs at 37° C., 5 mM
Description: We also examined the hemolytic activity of plain micelles prepared from PEG-lipid and lipopeptide conjugates on rat red blood cells and compared the results to two widely used ethoxylated nonionic surfactants: Triton X-100 and Tween 80. In the studies of FIG. 6, rat red blood cells (1%) were incubated with surfactants at indicated concentrations for 2 hrs at 37° C. After such incubation, supernatants were carefully withdrawn, measured for at OD540 nm, and calculated based on OD value under a condition that total hemolysis occurred.
1(j). Hemolysis assay. Rat red blood cells (RBCs) were isolated from freshly collected rat blood with added anticoagulant by washing three times with 10 volumes of cold PBS (1500 rpm for 10 min). RBCs were then diluted to 2% w/v with ice cold DPBS and utilized immediately for the hemolysis assay. One mL of diluted RBC suspension was treated with various concentrations (0-5 mM) of PEG-lipopeptides, Tween 80, and Triton X-100, respectively, and then incubated at 37° C. in an incubator shaker for 2 h. The samples were centrifuged at 1500 rpm for 10 min at 4° C., and 100 μL of supernatant from each sample was transferred into a 96-well plate. The release of hemoglobin was determined by the absorbance at 540 nm using a micro-plate reader. […] Hemoglobin release was calculated as (ODsample−ODnegative control)/(ODpositive control−ODnegative control)×100%.

[10] = Micelle-facilitated solubilization of JP4-039; type: physicochemical; settings: at comparable molar ratios
Description: In the solubilization studies of FIG. 4, various amounts of tetra chain PEG5,000-lysyl-[lysyl-(α-Fmoc-ε-oleyol-lysine)2]2 were mixed with JP4-039 in CHCl3 followed by solvent evaporation, the drug-loaded micelles were prepared by hydration in saline. The amounts of solubilized JP4-030 were determined by OD448 measurements from supernatant.
Lipopeptides, amino acid derivatives or nitroxide compounds were first dissolved in chloroform. The solutions were aliquoted to a glass test tube, mixed well, then blown with a constant nitrogen stream to remove the bulk of the solvent. The residual solvent was removed by applying high vacuum for 2 hrs. To determine micelle-facilitated solubilization of JP4-039, various molar ratios of surfactant to drug were applied to make surfactant-drug mixture in water (final concentration of JP4-039 was 5 mg/mL). After at least 30 minutes, the samples were briefly centrifuged at 13,000 rpm. One half of the supernatants was recovered, to which an equal volume of ethanol was added to dissolve/disrupt micelle drug complexes. The amounts of drug in the samples were quantitated using OD448 nm.

## O=C(O[C@@H]1Cc2c(O)cc(O)cc2O[C@@H]1c1cc(O)c(O)c(O)c1)c1cc(O)c(O)c(O)c1 [EGCG, epigallocatechin gallate]
[1]
  Size +/− SD: 89.9 +/− 12 nm
[2]
  Oxidation on storage: readily oxidized
[3]; tested agent itself, Table 1
  solubility: freely
[3]; with multi-chain PEGylated micelle-forming surfactant
  Soluble at: 5 mg/mL

## PEG5K-lysyl-(α-Fmoc-ε-t-Boc-lysine)2 [PEG-Fmoc]
[4]
  Cytotoxicity (tumor cell inhibition): did not show apparent toxicity
[5]; carrier alone
  Micelle size in aqueous solution: 25˜30 nm
[5]; drug-free carrier 5 mg/mL
  PDI: 0.488
  Particle size: 28.55 ± 0.27 nm
[6]
  Cytotoxicity (tumor cell inhibition): did not show apparent toxicity
[7]
  CMC: 5.244 µM
[8]
  Cytotoxicity (tumor cell inhibition): did not show apparent toxicity

## Triton X-100
[9]
  Hemolysis: 100%

## methoxy PEG2,000-carbamoyl-1-palmitoyl-2-oleoyl-sn-glycero-3-phosphotidylethanolamine [compound 8]
[10]
  Activity in forming a stable JP4-039-containing micelle solution: inactive
